The source of these data is patent US20200179341A1, “METHODS AND COMPOSITIONS FOR TREATING MULTIPLE MYELOMA AND INCREASING ANTIBODY DEPENDENT CELL CYTOTOXICITY BY TARGETING THE ARYL HYDROCARBON RECEPTOR” (priority 2016, published 2020).

One data set relates to MM cells. Description: Surface expression (MFI) of MM antigens targetable by therapeutic monoclonal antibodies after AHR inhibition. The data set is classed as cell-based. On the procedure: AHR antagonism enhances MM expression of antigens targetable by therapeutic monoclonal antibodies. […] Accordingly, NK-cell mediated killing of MM tumor cells is tested by combining AHR antagonism of effector cells and MM targets with therapeutic monoclonal antibodies.

Data set [1] deals with NK cell precursors. Description: NK cell development and function from AHR-expressing innate lymphoid cell precursors. The data set is classed as cell-based. The note with it: compared to control and AHR agonist (FICZ) treated cells; FIG. 2.
For another data set, the system named is MM cell targets. Description: Antibody-mediated ADCC with AHR antagonism (cytotoxicity co-culture). The data set is classed as cell-based. How it is done: A series of in vitro studies are conducted in which immune effector cells and/or MM cell targets are pre-treated with vehicle or CH233191 prior to cytotoxicity co-culture assay. Accounting for the baseline, direct effect of AHR antagonism on MM cell viability, any additive rate of target cell death in the combinatorial condition can be studied, in particular when both effectors and targets are pre-exposed to CH233191. Using validated techniques (Benson Blood 2010), the effects of CH233191 on immune effector cell expansion, expression of activating receptors, and abilities to traffic to, acquire, and lyse MM targets is studied. These experiments are conducted in the presence of therapeutic monoclonal antibodies in order to assess whether AHR antagonism may enhance ADCC-mediated immunotherapy (e.g., Elotuzumab, Daratumumab/Isatuximab/Rituximab/Milatuzumab).

For the next data set, the system named is MM tumor cell burden. Description: CH233191 by oral gavage in a disseminated murine MM model.
The test system of data set [2] is NK cell precursors. The note with it: Roeven Blood 2014; cited from earlier work.

`Cc1ccccc1N=Nc1ccc(NC(=O)c2ccnn2C)c(C)c1` [CH233191]: the “MFI (CH233191), CD20” value with MM cells (surface antigen CD20, antibody Rituximab, DMSO control MFI 321) turned out to be 753. The “MFI (CH233191), CD38” value in the data set on MM cells (surface antigen CD38, antibodies Daratumumab, Isatuximab, DMSO control MFI 2959) was determined as 6110. The “MFI (CH233191), CD74” value with MM cells (surface antigen CD74, antibody Milatuzumab, DMSO control MFI 761) worked out at 1367. In the data set on MM cells (surface antigen SLAMF7 (CS1), antibody Elotuzumab, DMSO control MFI 1946), the “MFI (CH233191), SLAMF7 (CS1)” value is reported as 2999. The “acquisition of cytokine production and cytotoxicity capabilities” value in the data set with NK cell precursors [1] is on record as “rapid acquisition of cytokine production as well as cytotoxicity capabilities”. In the data set with MM cell targets (FIG. 9, with Elotuzumab), the “Elotuzumab-mediated ADCC” value is recorded as “appears to enhance”. In addition, the “Daratumumab-mediated ADCC” value with MM cell targets (FIG. 10, with Daratumumab) was “appears to enhance”. Also, the oral bioavailability result in the data set with MM tumor cell burden (difficulties with solubilization in corn oil for gavage) is given as “questionable”. The “apparent reduction in MM tumor cell burden” value in the data set on MM tumor cell burden (oral gavage in corn oil, versus vehicle-treated controls) was 2 of 5. For the same molecule, the survival outcome in the data set on MM tumor cell burden (oral gavage, disseminated murine MM model) was “all mice died of progressive MM”.

Take `CC(C)n1cnc2c(NCCc3ccc(O)cc3)nc(-c3csc4ccccc34)nc21` [Stemreginin 1]: in the data set with NK cell precursors [2], the “acquisition of NK cell function (corroboration)” value is “corroborated this finding”.
